Results published in ChEMBL document CHEMBL6115036, “Exploration of membrane-active cephalosporin derivatives as potent antibacterial agents against Staphylococcus aureus biofilms and persisters” (Eur J Med Chem, 2025).
In brackets after ≈: the same amount, converted by molar mass. Activity calls are given as the source filed them. The calls are words filed in the database; no cut-off is given here.

Assays:
Staphylococcus aureus [1] = experiment: Induction of cytoplasmic membrane depolarization in Staphylococcus aureus assessed as increase in fluorescence intensity at 16 ug/ml measured for 20 mins by DiSC3(5) dye based analysis; type: functional, organism-based; details: dose 16.0 µg/ml
[2] = tested on: Stenotrophomonas maltophilia; experiment: Antimicrobial activity against Stenotrophomonas maltophilia incubated for 16 to 18 hrs by broth dilution assay; type: functional; details: time 16-18 hrs
Escherichia coli = experiment: Antimicrobial activity against Escherichia coli incubated for 16 to 18 hrs by broth dilution assay; type: functional; details: time 16-18 hrs
Enterococcus faecalis = experiment: Antimicrobial activity against Enterococcus faecalis incubated for 16 to 18 hrs by broth dilution assay; type: functional; details: time 16-18 hrs
[3] = Hemolytic activity in sheep red blood cells incubated for 1 hr; type: toxicity, cell-based, Ovis aries, Erythrocyte
Staphylococcus aureus [4] = experiment: Antimicrobial activity against Staphylococcus aureus incubated for 16 to 18 hrs by broth dilution assay; type: functional; details: time 16-18 hrs
Staphylococcus aureus [5] = experiment: Induction of inner membrane permeability in Staphylococcus aureus assessed as increase in fluorescence intensity at 16 ug/ml measured for 20 mins by PI dye based analysis; type: functional, organism-based; details: dose 16.0 µg/ml

| Structure (SMILES) | Activity (Staphylococcus aureus [1]) | MIC [2] | MIC (Escherichia coli) | MIC (Enterococcus faecalis) | HC50 at 1 h [3] | MIC (Staphylococcus aureus [4]) | Activity (Staphylococcus aureus [5]) |
| --- | --- | --- | --- | --- | --- | --- | --- |
| CCCCCCCCCCCCCCNC(=O)c1cc[n+](CC2=C(C(=O)O)N3C(=O)[C@@H](NC(=O)Cc4ccccc4)[C@H]3SC2)cc1.[I-] | inactive | > 128 µg/mL | > 128 µg/mL | 16 µg/mL | 151 µg/mL | 4 µg/mL | inactive |
| CCCCCCCCNC(=O)c1ccc[n+](CC2=C(C(=O)O)N3C(=O)[C@@H](NC(=O)Cc4ccccc4)[C@H]3SC2)c1.[I-] | inactive | > 128 µg/mL | > 128 µg/mL | 8 µg/mL | > 1280 µg/mL | 0.031 µg/mL | inactive |
| CC(=O)OCC1=C(C(=O)O)N2C(=O)[C@@H](NC(=O)c3ccncc3)[C@H]2SC1 | – | > 128 µg/mL | > 128 µg/mL | > 128 µg/mL | – | 16 µg/mL (≈ 42.4 µM) | – |
| CCCCNC(=O)c1ccc[n+](CC2=C(C(=O)OCc3ccc(OC)cc3)N3C(=O)[C@@H](NC(=O)Cc4ccccc4)[C@H]3SC2)c1.[I-] | – | – | – | – | – | 0.25 µg/mL | – |
| CCCC[n+]1ccc(C(=O)N[C@@H]2C(=O)N3C(C(=O)OC(c4ccccc4)c4ccccc4)=C(COC(C)=O)CS[C@H]23)cc1.[I-] | – | > 128 µg/mL | > 128 µg/mL | 128 µg/mL | – | 128 µg/mL | – |
| O=C(Cc1ccccc1)N[C@@H]1C(=O)N2C(C(=O)O)=C(CSc3ccncc3)CS[C@H]12 | – | 64 µg/mL (≈ 145 µM) | 64 µg/mL (≈ 145 µM) | 16 µg/mL (≈ 36.2 µM) | – | 0.063 µg/mL (≈ 0.143 µM) | – |
| COc1ccc(COC(=O)C2=C(C[n+]3ccccc3)CS[C@@H]3[C@H](NC(=O)Cc4ccccc4)C(=O)N23)cc1.[I-] | – | – | – | – | – | 0.25 µg/mL | – |
| CCCCCCCCCCCCCCNC(=O)c1ccc[n+](CC2=C(C(=O)O)N3C(=O)[C@@H](NC(=O)Cc4ccccc4)[C@H]3SC2)c1.[I-] | inactive | > 128 µg/mL | > 128 µg/mL | 16 µg/mL | 155 µg/mL | 2 µg/mL | inactive |
| CCCCCC[n+]1ccc(-c2cc[n+](CC3=C(C(=O)[O-])N4C(=O)[C@@H](NC(=O)Cc5ccccc5)[C@H]4SC3)cc2)cc1.O=C([O-])C(F)(F)F | – | 16 µg/mL | 16 µg/mL | 16 µg/mL | > 1280 µg/mL | 0.125 µg/mL | – |
| CCCCNC(=O)c1cc[n+](CC2=C(C(=O)O)N3C(=O)[C@@H](NC(=O)Cc4ccccc4)[C@H]3SC2)cc1.[I-] | – | 64 µg/mL | 32 µg/mL | 32 µg/mL | > 1280 µg/mL | 0.125 µg/mL | – |
| CCCCCCCCCCCCCCNC(=O)c1ccc[n+](CC2=C(C(=O)OCc3ccc(OC)cc3)N3C(=O)[C@@H](NC(=O)Cc4ccccc4)[C@H]3SC2)c1.[I-] | – | – | – | – | – | 0.25 µg/mL | – |
| CCCC[n+]1ccc(SCC2=C(C(=O)O)N3C(=O)[C@@H](NC(=O)Cc4ccccc4)[C@H]3SC2)cc1.O=C([O-])C(F)(F)F | – | 8 µg/mL | 4 µg/mL | 8 µg/mL | – | 0.063 µg/mL | – |
| CCCCCCCCNC(=O)c1cc[n+](CC2=C(C(=O)OCc3ccc(OC)cc3)N3C(=O)[C@@H](NC(=O)Cc4ccccc4)[C@H]3SC2)cc1.[I-] | Active | – | – | – | – | 0.25 µg/mL | Active |
| CCCCCCCCNC(=O)c1ccc[n+](CC2=C(C(=O)OCc3ccc(OC)cc3)N3C(=O)[C@@H](NC(=O)Cc4ccccc4)[C@H]3SC2)c1.[I-] | Active | – | – | – | – | 0.25 µg/mL | Active |
| CCCC[n+]1ccc(C(=O)N[C@@H]2C(=O)N3C(C(=O)O)=C(COC(C)=O)CS[C@H]23)cc1.[I-] | – | > 128 µg/mL | > 128 µg/mL | > 128 µg/mL | – | > 128 µg/mL | – |
| CCCCCCNC(=O)c1ccc[n+](CC2=C(C(=O)O)N3C(=O)[C@@H](NC(=O)Cc4ccccc4)[C@H]3SC2)c1.[I-] | – | 64 µg/mL | 64 µg/mL | 16 µg/mL | > 1280 µg/mL | 0.125 µg/mL | – |
| CCCCCCCC[n+]1ccc(-c2cc[n+](CC3=C(C(=O)[O-])N4C(=O)[C@@H](NC(=O)Cc5ccccc5)[C@H]4SC3)cc2)cc1.O=C([O-])C(F)(F)F | – | 64 µg/mL | 64 µg/mL | 16 µg/mL | > 1280 µg/mL | 0.125 µg/mL | – |
| CC(=O)OCC1=C(C(=O)O)N2C(=O)[C@@H](NC(=O)c3cc[n+](C)cc3)[C@H]2SC1.[I-] | – | > 128 µg/mL | > 128 µg/mL | > 128 µg/mL | – | 128 µg/mL | – |
| CCCCCCCCCCCCNC(=O)c1ccc[n+](CC2=C(C(=O)OCc3ccc(OC)cc3)N3C(=O)[C@@H](NC(=O)Cc4ccccc4)[C@H]3SC2)c1.[I-] | – | – | – | – | – | 0.25 µg/mL | – |
| CCCCCCCCCCCCNC(=O)c1cc[n+](CC2=C(C(=O)O)N3C(=O)[C@@H](NC(=O)Cc4ccccc4)[C@H]3SC2)cc1.[I-] | inactive | > 128 µg/mL | > 128 µg/mL | 8 µg/mL | 254 µg/mL | 0.25 µg/mL | inactive |
